# Values quoted from earlier work as cited in patent US6486118B1, “Detergent compositions” (Unilever Home & Personal Care USA, division of Conopco, Inc., priority 1999, dated 2002).
# Where two headings read alike, the source gives them in different places.
# [1] = other common materials, by contrast, at 20° C.
Structure (SMILES),Water Solubility (g/100 g) [1] [g/100 g],"Water Solubility (g/100 g) (highly water-soluble materials, grams of solid to form a saturated solution in 100 grams of water at 20° C.)"
O=P(O)(O)OP(=O)(O)OP(=O)(O)O [Sodium tripolyphosphate anhydrous],15,
NC(N)=O [Urea],,>100
O=BO[O-].[Na+] [Sodium perborate anhydrous],3.7,
